Reference: patent publication US6287840A (Axys Pharmaceuticals, Inc., priority 1999, dated 2001)
Like-named read-outs stand apart in the source and are kept apart here.

Experiments:
[1] = test system: Trypanosoma cruzi amastigote infected macrophages; assay: In vitro antiprotozoal activity, Trypanosoma cruzi; format: cell-based
Method: (§1) In this table, the in vitro antiprotozoal activities of the indicated compounds were measured as percentage inhibition of Leishmania donovani amastigote infecteda mouse peritoneal macrophages, Trypanosoma cruzi amastigote infected macrophages, and Trypanosoma brucei extracellular bloodstream forms.

[2] = target: T1, Cathepsin L from rat liver (Rattus norvegicus, UniProt P07154); assay: Inhibition of cathepsin L, Z-Phe-Arg-AMC fluorescence progress curves; format: biochemical; conditions: for kobs /[I]* (approximate second-order inactivation constant): values marked *; for kobs /[I]* (approximate second-order inactivation constant) / k/KI (kirr/KI): 25° C., pH 6.2; for Ki: corrected for substrate; for k/KI (kirr/KI): values without asterisk
T1 construct: Cathepsin L from rat liver; from tissue; host or cells: rat liver
T1 sequence (P07154 114-288 limits assumed): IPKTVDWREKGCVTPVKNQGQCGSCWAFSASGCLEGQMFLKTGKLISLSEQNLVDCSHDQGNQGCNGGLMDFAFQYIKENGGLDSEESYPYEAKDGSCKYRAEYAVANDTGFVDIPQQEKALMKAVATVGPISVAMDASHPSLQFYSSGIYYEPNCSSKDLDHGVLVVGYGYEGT
T1 sequence (P07154 291-334 limits assumed): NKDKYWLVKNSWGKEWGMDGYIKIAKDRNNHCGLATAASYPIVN
In short: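 Progress curves of AMC release (380/460 nm) over at least 3 inactivation half-times were fitted to kobs, reported as kobs/[I] or, via 1/[I] vs 1/kobs, kirr, KI (substrate-corrected) and kirr/KI.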

[3] = test system: Leishmania donovani amastigote infected mouse peritoneal macrophages; assay: In vitro antiprotozoal activity, Leishmania donovani; format: cell-based; set-up: key to percentage inhibition, L. donovani: the term "T" indicates the molecule to have displayed cytotoxicity
Method: as §1

[4] = test system: Trypanosoma brucei extracellular bloodstream forms; assay: In vitro antiprotozoal activity, Trypanosoma brucei; format: cell-based
Method: as §1

[5] = test system: human malarial parasite Plasmodium falciparum; assay: In vitro protease activity of malarial parasite, substrate Z-Phe-Arg-AMC; format: biochemical; conditions: read-out: P. falciparum IC50 (human)
Excerpt: (§2) The following table summarizes the comparative IC50 values for selected cysteine protease inhibitors against the human malarial parasite Plasmodium falciparum and the mouse malarial parasite Plasmodium vinckei. The substrate used to measure in vitro protease activity was Z-Phe-Arg-AMC.

[6] = test system: mouse malarial parasite Plasmodium vinckei; assay: as above; format: biochemical; conditions: read-out: P. vinckei IC50 (murine)
Excerpt: as §2

Cloned cathepsin S = target: T2, Cloned cathepsin S (Homo sapiens, UniProt P25774); assay: Inhibition of cathepsin S, Z-Val-Val-Arg-AMC fluorescence progress curves; format: biochemical; conditions: for kobs /[I]* (approximate second-order inactivation constant): values marked *; for kobs /[I]* (approximate second-order inactivation constant) / k/KI (kirr/KI): 25° C., pH 6.5; for Ki: corrected for substrate; for k/KI (kirr/KI): values without asterisk
T2 construct: made in house
T2 sequence (P25774 115-331): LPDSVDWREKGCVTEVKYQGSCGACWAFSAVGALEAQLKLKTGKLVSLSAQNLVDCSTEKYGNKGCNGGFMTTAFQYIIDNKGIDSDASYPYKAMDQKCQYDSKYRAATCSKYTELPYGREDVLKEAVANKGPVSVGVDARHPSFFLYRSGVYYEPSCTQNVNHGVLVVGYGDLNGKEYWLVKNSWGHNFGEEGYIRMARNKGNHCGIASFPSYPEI
In short: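 Progress curves at 25 °C in 100 mM phosphate pH 6.5, 2.5 mM DTT, 2.5 mM EDTA, 0.01% Triton, enzyme <1 nM, 10 μM substrate, inhibitors 30-0.001 μM; AMC fluorescence ex 380/em 460 nm. kobs from nonlinear fits gave kobs/[I]; selected compounds yielded kirr, KI (substrate-corrected), kirr/KI.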

calpain = assay: Inhibition (inactivation) of calpain, Suc-Leu-Tyr-AMC; format: biochemical; conditions: pH 7.5, 5 mM CaCl2, 25° C.; for kobs /[I]*: values marked * (or %); for k/KI (kirr/KI): values without asterisk
Method: The inhibitors were tested against calpain at 1 or 2% as for the other enzymes. The reaction conditions were 50 mM Tris, pH 7.5, 5 mM CaCl2, 2.5 mM DTT, assayed at 25° C. The substrate was 100 μM Suc-Leu-Tyr-AMC.

cruzain, from T. cruzi = cruzain, from T. cruzi (Trypanosoma cruzi, UniProt P25779); assay: Inhibition of cruzain, as for cathepsin L; format: biochemical; conditions: for kobs /[I]* (approximate second-order inactivation constant): values marked *; for k/KI (kirr/KI): values without asterisk
Chain of cruzain, from T. cruzi (P25779 123-337 limits assumed): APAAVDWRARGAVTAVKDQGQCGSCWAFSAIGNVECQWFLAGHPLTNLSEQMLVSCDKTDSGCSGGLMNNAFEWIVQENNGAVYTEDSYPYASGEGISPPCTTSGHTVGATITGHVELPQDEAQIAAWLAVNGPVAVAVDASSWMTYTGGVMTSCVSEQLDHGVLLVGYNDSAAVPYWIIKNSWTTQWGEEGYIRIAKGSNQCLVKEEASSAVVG
In short: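 Run as for cathepsin L with 1 nM cruzain in 50 mM phosphate pH […], 2.5 mM DTT, 2.5 mM EDTA, 5 μM Z-Phe-Arg-AMC, at 25 °C, inhibitors 30-0.001 μM; fluorescence (ex 380/em 460 nm) followed continuously. kobs fitted from progress curves and kobs/[I] reported; selected compounds gave kirr, KI, kirr/KI, with KI corrected by (1+[S]/Km).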

[7] = target: T3, Cathepsin B from human placenta (Homo sapiens, UniProt P07858); assay: Inhibition of cathepsin B, Z-Arg-Arg-AMC fluorescence progress curves; format: biochemical; conditions: for k/KI (kirr/KI): values without asterisk; for Ki: corrected for substrate
T3 construct: Cathepsin B from human placenta, obtained from Sigma; purchased Sigma; host or cells: human placenta (tissue)
In short: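 Human placental enzyme (~10 nM) in 50 mM phosphate pH 6.2 with 2.5 mM DTT and 2.5 mM EDTA, 50 μM Z-Arg-Arg-AMC, inhibitors 30-0.001 μM, 25° C. AMC fluorescence (ex 380/em 460 nm) progress curves fitted for kobs; kobs/[I] reported, with kirr, KI and kirr/KI substrate-corrected for selected compounds.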

T. cruzi = T. cruzi infected irradiated J774 cells; format: cell-based; set-up: dose or concentration left out as unconfirmed; conditions: thereafter without inhibitor; compounds listed in decreasing order of effectiveness
Method: Irradiated J774 cells were infected with T. cruzi and simultaneously treated with […] of peptidyl vinyl derivatives for 5 days; thereafter without inhibitor. The following compounds were effective in decreasing order: Mu-Phe-ArgVSPh, Boc-Tyr(I2)-HphVSPh, Mu-Phe-VaIVSPh, Boc-Tic-HphVSPh, Mu-Phe-Ser(OBzl)VSPh, Mu-Leu-HphVSPh, Mu-Tyr(I2)-HphVSPh, Mu-Phe-LysVSPh, Mu-Tic-HphVSPh.

Compound	percentage inhibition, T. cruzi ([1]; 3 uM) [%]	percentage inhibition, T. cruzi ([1]; 10 uM) [%]	percentage inhibition, T. cruzi ([1]; 30 uM) [%]	percentage inhibition, T. cruzi ([1]; 90 uM) [%]	percentage inhibition, L. donovani ([3]; 3 uM) [%]	percentage inhibition, L. donovani ([3]; 10 uM) [%]	percentage inhibition, L. donovani ([3]; 30 uM) [%]	percentage inhibition, L. donovani ([3]; 90 uM)	percentage inhibition, T. brucei ([4]; 3 uM) [%]	percentage inhibition, T. brucei ([4]; 10 uM) [%]	percentage inhibition, T. brucei ([4]; 30 uM) [%]	percentage inhibition, T. brucei ([4]; 90 uM) [%]	IC50 ([5]; cells printed in nM) [nM]	kobs /[I]* (approximate second-order inactivation constant) (Cloned cathepsin S)	kobs /[I]* (approximate second-order inactivation constant) (cruzain, from T. cruzi)	k/KI (kirr/KI) ([7]; 25° C., pH 6.2)	effectiveness against T. cruzi in J774 cells (T. cruzi)	kirr [7] [s⁻¹]	Ki [7] [µM]	k/KI (kirr/KI) [2]	further results
(S)-(E)-Benzyl 4-(4-morpholinecarbonylphenylalanyl)amino-6-phenyl-2-hexenamide [Mu-Phe-HphVAMBzl]	0	0	0	5.83	0	0	14.2	23.3%	0	0	0	0	200	10,800 M^-1 sec^-1	70,200 M^-1 sec^-1	< 100 M⁻¹ s⁻¹	–	–	–	–	kobs /[I]* (approximate second-order inactivation constant) [2]: 2800 M⁻¹ s⁻¹; IC50 ([6]; cells printed in μM): 2 µM; kobs /[I]* (calpain): < 50 M⁻¹ s⁻¹
(S,S)-(E)-3-[4-morpholinecarbonyl-(1,2,3,4-tetrahydro-3-isoquinoline-carbonyl)]amino-5-phenyl-1-phenylsulfonyl-1-pentene [Mu-Tic-HphVSPh]	–	–	–	–	–	–	–	–	–	–	–	–	–	630,000 M^-1 sec^-1	–	0 M⁻¹ s⁻¹	effective	–	–	–	kobs /[I]* (approximate second-order inactivation constant) [2]: 12,600 M^-1 sec^-1; k/KI (kirr/KI) (calpain): 0 M⁻¹ s⁻¹; k/KI (kirr/KI) (cruzain, from T. cruzi): 0 M⁻¹ s⁻¹
(S)-(E)-3-(4-morpholinecarbonylphenylalanyl)amino-1-methylsulfonyl-1-butene [Mu-Phe-AlaVSMe]	0	0	11.2	12.2	0	0	0	6.7%	0	0	0	0	–	26,000 M^-1 sec^-1	700 M⁻¹ s⁻¹	300 M⁻¹ s⁻¹	–	0.19	~1000	–	IC50 ([5]; cells printed in μM): 20000 nM; kobs /[I]* (calpain): < 50 M⁻¹ s⁻¹
O=C(NCCCC[C@@H](/C=C/S(=O)(=O)c1ccccc1)NC(=O)[C@H](Cc1ccccc1)NC(=O)N1CCOCC1)OCc1ccccc1 [Mu-Phe-Lys(Z)VSPh, (S)-(E)-7-(benzyloxycarbonyl)amino-3-(4-morpholinecarbonylphenylalanyl)-amino-1-phenylsulfonyl-1-heptene]	0	0	0	0	0	0	0	0%	29.9	81.3	100	100	100	–	–	39,200 M^-1 sec^-1	–	0.18	4.7	120,000 M^-1 sec^-1	kirr [2]: 0.45 s⁻¹; Ki [2]: 3800 nM; ED50, T. brucei [4]: 3.64 µM; percentage inhibition, T. brucei ([4]; 1 uM): 19.8%; IC50 ([6]; cells printed in nM): 0.08 µM; kirr (Cloned cathepsin S): 0.14 s⁻¹; Ki (Cloned cathepsin S): 54 nM; k/KI (kirr/KI) (Cloned cathepsin S): 2,600,000 M^-1 sec^-1; k/KI (kirr/KI) (cruzain, from T. cruzi): 44,500 M^-1 sec^-1
ethyl (S)-(E)-4-(4-morpholinecarbonylphenylalanyl)-amino-6-phenyl-2-hexenoate [Mu-Phe-HphVEOEt]	–	–	–	–	–	–	–	–	–	–	–	–	300	–	80,400 M^-1 sec^-1	10,100 M^-1 sec^-1	–	0.19	19	47,500 M^-1 sec^-1	kirr [2]: 0.10 s⁻¹; Ki [2]: 2200 nM; IC50 ([6]; cells printed in nM): 0.3 µM
(S)-(E)-3-[4-tert-butoxycarbonyl-(3,5-diiodotyrosyl)]-amino-5-phenyl-1-phenylsulfonyl-1-pentene [Boc-Tyr(I2)-HphVSPh]	–	–	–	–	–	–	–	–	–	–	–	–	–	210,000 M^-1 sec^-1	280,000 M^-1 sec^-1	–	effective	–	–	–	kobs /[I]* (approximate second-order inactivation constant) [2]: 105,000 M^-1 sec^-1; k/KI (kirr/KI) (calpain): 0 M⁻¹ s⁻¹; kobs /[I]* (approximate second-order inactivation constant) ([7]; values marked *, 25° C., pH 6.2): 1400 M⁻¹ s⁻¹
COC(=O)C1CCCN1C(=O)C(CC(C)C)NC(=O)/C=C/[C@H](CCc1ccccc1)NC(=O)[C@H](Cc1ccccc1)NC(=O)N1CCOCC1 (stereo partly drawn) [Mu-Phe-HphVAMLeu-ProOMe, (S)-(E)-(N-leucylprolinemethylester)-4-(4-morpholinecarbonylphenyl-alanyl)amino-6-phenyl-2-hexenamide]	–	–	–	–	–	–	–	–	–	–	–	–	80	–	–	–	–	–	–	–	IC50 ([6]; cells printed in nM): 0.6 µM
(S)-(E)-4-(4-morpholinecarbonylphenylalanyl)amino-6- phenyl-2-hexenoic acid [Mu-Phe-HphVA]	–	–	–	–	–	–	–	–	–	–	–	–	–	–	–	450 M⁻¹ s⁻¹	–	0.038	85	–	IC50 ([5]; cells printed in μM): 1000 nM; IC50 ([6]; cells printed in μM): 2 µM
(S,S)-(E)-3-[tert-butoxycarbonyl-(1,2,3,4-tetrahydro-3-isoquinolinecarbonyl)]-amino-5-phenyl-1-phenylsulfonyl-1-pentene [Boc-Tic-HphVSPh]	–	–	–	–	–	–	–	–	–	–	–	–	–	–	–	–	effective	–	–	0 M⁻¹ s⁻¹	k/KI (kirr/KI) (Cloned cathepsin S): 0 M⁻¹ s⁻¹; k/KI (kirr/KI) (calpain): 0 M⁻¹ s⁻¹; k/KI (kirr/KI) (cruzain, from T. cruzi): 30,000 M^-1 sec^-1
(S)-(E)-3-(4-morpholinecarbonylphenylalanyl)amino-4-methyl-1-phenylsulfonyl-1-pentene [Mu-Phe-ValVSPh]	5.5	6.2	18.9	74.2	100	100	100	T	13.5	35.4	72.7	100	–	–	28,000 M^-1 sec^-1	–	effective	–	–	74,000 M^-1 sec^-1	ED50, T. cruzi [1]: 61.88 µM; kirr [2]: 0.19 s⁻¹; Ki [2]: 2600 nM; ED50, T. brucei [4]: 13.85 µM; percentage inhibition, T. brucei ([4]; 1 uM): 11.9%; IC50 ([5]; cells printed in μM): 1000 nM; IC50 ([6]; cells printed in μM): 1 µM; kirr (Cloned cathepsin S): 0.039 s⁻¹; Ki (Cloned cathepsin S): 130 nM; k/KI (kirr/KI) (Cloned cathepsin S): 290,000 M^-1 sec^-1; kobs /[I]* (calpain): 180 M⁻¹ s⁻¹
